# Test results as given in patent publication US12337022B2, “Use of a vegetable extract from salvia haenkei as an active agent in the treatment of heart diseases” (Altergon S.A., priority 2021, dated 2025).
# Tests used:
# Sprague-Dawley rats = experiment: Echocardiography in rat model of DOXO-induced cardiotoxicity; format: in vivo; conditions: DOXO-treated animals not receiving SH
# Protocol: For in vivo experiments, considering that a water intake for adult rat is about 30-40 ml/day, 1.25 gr of SH extract was diluted in 300 ml of water, achieving a daily dose of […] (extract/body weight).
# Adult female Sprague-Dawley rats (250-300 g body weight) were injected with six intraperitoneal doses of DOXO (Sigma) delivered at regular intervals from Day 1 to Day 11 (cumulative dose=15 mg/kg). During the treatment, rats were given ad libitum access to water containing SH. Rats received a daily dose of about 0.5 mg/Kg of SH.
# Echocardiographic assessment, animals were anaesthetized at the indicated time points with 2.0-2.5% isoflurane. Transthoracic echocardiography was performed using the Vevo 2100 high-resolution imaging system (VisualSonic) equipped with a 13-24-MHz linear transducer. Analyses were performed on Days 0 (baseline), 12, 19. Two-dimensional short-axis M-mode echocardiography was performed. All M-mode tracing measurements were averaged from a minimum of three cardiac cycles. Investigators were blinded to the animals' identity.
# Protocol for beating human iPS-CM: Traces were recorded every 24 hours for 7 consecutive days from the beginning of the DOXO treatment (day 0-3 h).
structure (smiles),measurement,setting,value
"COc1cccc2c1C(=O)c1c(O)c3c(c(O)c1C2=O)C[C@@](O)(C(=O)CO)C[C@@H]3O[C@H]1C[C@H](N)[C@H](O)[C@H](C)O1 [DOXO, Doxorubicin]",left end systolic volume (LVESV),Sprague-Dawley rats,increased over time
same,left ventricular ejection fraction (LVEF),Sprague-Dawley rats,significant decrease
same,QT interval,beating human iPS-CM,induces prolongation on QT interval
